According to patent publication US20200018743A1, “MINI-CANCERS UTILIZATION FOR PERSONALIZED CANCER DRUG REGIMENS” (THE JOHNS HOPKINS UNIVERSITY, priority 2017, published 2020):
“Also recorded” adds a separate entry of the source. Where two headings read alike, the source gives them in different places. Starred links: 1 amine or outer side, 2 acyl side, 3 side chain; linkers in the order of their positions; H or OH if unused. Positions of bridges follow the written chain, without caps; N, C: chain ends. Non-standard residues stand in square brackets, D forms with d. Residues, ends and D or L forms follow the SMILES beside them. Chains are numbered I, II in the order given. Actinocin(9to1) = Cc1c2oc3c(C)ccc(C(=O)[*:1])c3nc-2c(C(=O)[*:2])c(N)c1=O; NMeV = CN[C@H](C(=O)O)C(C)C; Sar = CNCC(=O)O

Tests used:
[1] = test system: CCA8 sister CCA PDO lines; test: 129-drug panel on the 6 sister PDO lines of CCA8; format: cell-based, human
Text: (§1) This intra tumor functional heterogeneity was investigated by calculating the standard deviation of a drug response across all PDO lines established from a patient tumor. […] The inventors chose one of the cancer specimens (CCA8) for further in-depth studies of intra-tumor functional heterogeneity and the identification of its drivers. […] To visualize this phenomenon, we calculated the standard deviation of each drug effect across the 6 PDOs (FIG. 20D). […] To this end, we first chose drugs that induced 30% or less viability in at least one of the 6 sister CCA PDO lines when tested at a 10 uM concentration. […] Of note, there is no known genetic alteration (mutational or otherwise) to predict the response of human cancers to proteasome inhibitors.
(§2) PDOs were plated in 96-well or 384-well plates and cultured for 3 days. Next, media was changed with drug-containing media. The initial screen was performed at a concentration of 10 uM. After 4 days, viability was determined in each well with Cell TiterGlo (Cat #: G7572, Promega, Wis.) following the manufacturer's instruction. […] was measured with a plate reader (Perkin-Elmer EnVision Plate Reader). Drugs that induced less than 50% viability were chosen for future studies.

[2] = test system: 27 liver cancer PDO lines; test: High throughput screening of NCI VII 129-drug panel on 27 liver cancer PDO lines (CellTiter-Glo); format: cell-based, human; details: for effectiveness across the cohort of primary liver mini-cancers / all 27 liver cancer PDO lines: 10 uM, CellTiter-Glo; for inter patient effect (mean cell viability per patient cancer specimen): across the 5 patients' cancers
Text: To pick out inter patient divergent drugs (i.e., drugs with discordant effect across the 5 patients), we calculated the mean cell viability per patient cancer specimen by averaging the effect of the drugs across all PDO lines established for the same patient. This mean cell viability per patient is a measure of how the tumor, as a whole, responds to a certain drug. Next, we calculated the standard deviation of the 5 means (one per patient) and ordered the data in decreasing order of the standard deviation. […] To further visualize the inter-patient divergence of drug effects, the inventors constructed a heat map of drug responses per each patient (utilizing the mean cell viability over all clones from each patient, FIG. 20B).
as §1
Take out Matrigel from −20 C and keep at 4 C overnight. Also keep pipette tips at 4 C overnight. Count cells. Mix cells with Matrigel so that you have 200 cells per uL of Matrigel. […] Plate 2 rows, then stop. Wait till the Matrigel is solid. Then add 100 uL of growth passage media. Then continue till all plate is filled up with cells. Place plate into incubator. Take picture with white light. After 4 days replace the media with media containing drugs (90 uL media+10 uL drug work solution). Use a multi-pipette.
as §2

CCA PDO = test: Drug testing on a CCA PDO line read by white light / bright field images; format: cell-based, human; details: for effect on PDO (shape, number or size of cystic PDO structures): 9-drug library, 10 uM, white light images; for effect on PDO growth (cytocidal / cytostatic): over 96 hours
Description: In preliminary studies, the inventors have obtained resection cancer tissue from 10 CCA patients. […] Pilots experiments were performed with a 9-drug library, at a standard HT screening drug concentration of 10 uM. For positive control, the inventors used 10% Triton X, while for negative control the inventors used DMSO at same concentration used to dissolve drugs. […] As proof of concept, the inventors then expanded to the 1,600 drug JHCCL Hopkins library (data not shown). […] This scale-up required a reproducible and accurate read out. We chose CellTiter-Glo (Promega), an ATP-based cytotoxicity assay that quantifies metabolically active cells. […] Next, the inventors sought to determine IC50s. […] Next, the inventors performed whole exome sequencing on a subset of these CCA PDOs. […] The inventors next performed pilot trials with high-content imaging. We utilized DRAQ5 (red) to stain nuclei and YOYO-1 (green in FIG. 9) to stain dead cells. In this experiment, we treated a CCA PDO culture with Gemcitabine, at concentrations from 10 to 0.1 uM. […] FIG. 10 is a representative 100× Hematoxylin and Eosin image of a PDX tumor.
Initial drug testing experiments were performed on one PDO line, with a 9-drug library, at a standard HT screening drug concentration of 10 uM. For these experiments, we utilized a CCA PDO line. For positive control, we used 10% Triton X, while for negative control we used DMSO […] same concentration used to dissolve drugs. For these experiments, we utilized white light images and equated the killing effect of drugs into shrinking of PDO cystic structures. […] To this end, we tested the 5 chemotherapy agents typically used in CCA patients, as well as several combinations (FIG. 18C). […] Next, we sought a fast, reproducible and relatively inexpensive read out of cell death (or inhibited proliferation). We chose CellTiter-Glo (Promega), which is an ATP-based cytotoxicity assay that quantifies metabolically active cells. […] Therefore, we have used CellTiter-Glo for all subsequent experiments. […] By using CellTiter-Glo, we quantified the viability of cells treated with single agents as well as combinations (as in FIG. 18C).

HCC = HCC patients; cited from earlier work

| Compound | killing effect / activity across the 6 PDO lines ([1]; CCA8, 10 uM) | effectiveness across the cohort of primary liver mini-cancers / all 27 liver cancer PDO lines [2] | also measured |
| --- | --- | --- | --- |
| O=C(/C=C/c1cccc(S(=O)(=O)Nc2ccccc2)c1)NO [Belinostat] | moderate activity in 1/6 PDO lines and generally poor activity in 5/6 |  |  |
| CC(C)C[C@H](NC(=O)[C@H](CCc1ccccc1)NC(=O)CN1CCOCC1)C(=O)N[C@@H](Cc1ccccc1)C(=O)N[C@@H](CC(C)C)C(=O)[C@@]1(C)CO1 [Carfilzomib, carifilzomib] | effective across the 6 PDO lines | pan-effective |  |
| Cc1cc(Nc2ncc(Cl)c(Nc3ccccc3S(=O)(=O)C(C)C)n2)c(OC(C)C)cc1C1CCNCC1 [Ceritinib] | high activity in 3/6 and almost no activity in the rest 3/6 PDO lines |  |  |
| N.N.[Cl][Pt][Cl] [Cisplatin] | uniformly ineffective |  | effect on PDO (shape, number or size of cystic PDO structures) (CCA PDO): no effect; also recorded: did not appear to have any effect; effect on PDO (shape, number or size of cystic PDO structures) (CCA PDO; listed as cisplatin): no effect on the round shape of PDO; effectiveness in CCAs tested (CCA PDO; all 6 CCAs tested): ineffective; effect on PDO growth (cytocidal / cytostatic) (CCA PDO): ineffective; also recorded: unaffected PDO growth |
| Cc1c2oc3c(C)ccc(C(=O)N[C@@H]4C(=O)N[C@H](C(C)C)C(=O)N5CCC[C@H]5C(=O)N(C)CC(=O)N(C)[C@@H](C(C)C)C(=O)O[C@@H]4C)c3nc-2c(C(=O)N[C@@H]2C(=O)N[C@H](C(C)C)C(=O)N3CCC[C@H]3C(=O)N(C)CC(=O)N(C)[C@@H](C(C)C)C(=O)O[C@@H]2C)c(N)c1=O [Dactinomycin, dactinomycin] (I: T[dV]P[Sar][NMeV] / II: T[dV]P[Sar][NMeV]; ester I:1-I:C, II:1-II:C; linker I:N-II:N via Actinocin(9to1)) |  |  | inter patient effect (mean cell viability per patient cancer specimen) [2]: work well in just 1 cancer |
| COc1cccc2c1C(=O)c1c(O)c3c(c(O)c1C2=O)C[C@@](O)(C(=O)CO)C[C@@H]3O[C@H]1C[C@H](N)[C@H](O)[C@H](C)O1 [Doxorubicin] |  |  | inter patient effect (mean cell viability per patient cancer specimen) [2]: work in majority of cancers, but not in all of them |
| COc1cccc2c1C(=O)c1c(O)c3c(c(O)c1C2=O)C[C@@](O)(C(=O)CO)C[C@@H]3O[C@H]1C[C@H](N)[C@@H](O)[C@H](C)O1 [Epirubicin] | wide response |  |  |
| Nc1ccn([C@@H]2O[C@H](CO)[C@@H](O)C2(F)F)c(=O)n1 [Gemcitabine] | moderate activity in 1/6 and poor activity in 5/6 PDO lines |  | effect on PDO (shape, number or size of cystic PDO structures) (CCA PDO): moderate cytostatic but not a cytocydal effect; effect on PDO growth (cytocidal / cytostatic) (CCA PDO): moderate cytostatic, but not cytocidal effect; effect on PDO growth (cytocidal / cytostatic) (CCA PDO; listed as Gemicitabine): partially effective; inter patient effect (mean cell viability per patient cancer specimen) [2]: work in majority of cancers, but not in all of them |
| CC(=O)[C@]1(O)Cc2c(O)c3c(c(O)c2[C@@H](O[C@H]2C[C@H](N)[C@H](O)[C@H](C)O2)C1)C(=O)c1ccccc1C3=O [Idarubicin, idarubicin] | effective across the 6 PDO lines | pan-effective |  |
| CC[C@H](Nc1ncnc2[nH]cnc12)c1nc2cccc(F)c2c(=O)n1-c1ccccc1 [Idelalisib] | uniformly ineffective |  |  |
| CC(C)C[C@H](NC(=O)CNC(=O)c1cc(Cl)ccc1Cl)B(O)O [Ixazomib, ixazomib] | effective across the 6 PDO lines | pan-effective |  |
| CS(=O)(=O)CCNCc1ccc(-c2ccc3ncnc(Nc4ccc(OCc5cccc(F)c5)c(Cl)c4)c3c2)o1 [Lapatinib] | uniformly ineffective |  |  |
| N#Cc1ccc(C(c2ccc(C#N)cc2)n2cncn2)cc1 [Letrozole] | uniformly ineffective |  |  |
| N[C@@H](Cc1ccc(N(CCCl)CCCl)cc1)C(=O)O [Melphalan] | uniformly ineffective |  |  |
| CO[C@@]12[C@H](COC(N)=O)C3=C(C(=O)C(C)=C(N)C3=O)N1C[C@@H]1N[C@@H]12 [Mitomycin, mitomycin] |  |  | killing effect / activity across the 6 PDO lines [1]: effective across the 6 PDO lines |
| COC(=O)C[C@](O)(CCCC(C)(C)O)C(=O)O[C@@H]1C(OC)=C[C@]23CCCN2CCc2cc4c(cc2[C@H]13)OCO4 [Omacetaxine, omacetaxine] | wide response |  |  |
| Cc1[nH]c2ccccc2c1CCNCc1ccc(/C=C/C(=O)NO)cc1 [Panobinostat, panobinostat] |  | pan-effective |  |
| C/C=C1\NC(=O)[C@H]2CSSCC/C=C/[C@H](CC(=O)N[C@H](C(C)C)C(=O)N2)OC(=O)[C@H](C(C)C)NC1=O [Romidepsin, romidepsin] | effective across the 6 PDO lines | pan-effective |  |
| CNC(=O)c1cc(Oc2ccc(NC(=O)Nc3ccc(Cl)c(C(F)(F)F)c3)cc2)ccn1 [Sorafenib] |  |  | improvement of survival (HCC): 3 months; side effects (HCC): severe side effects; inter patient effect (mean cell viability per patient cancer specimen) [2]: work in majority of cancers, but not in all of them |
| O=C1CCC(N2C(=O)c3ccccc3C2=O)C(=O)N1 (stereo not shown) [Thalidomide] | uniformly ineffective |  |  |
| CCC1=C[C@@H]2CN(C1)Cc1c([nH]c3ccccc13)[C@@](C(=O)OC)(c1cc3c(cc1OC)N(C)[C@H]1[C@@](O)(C(=O)OC)[C@H](OC(C)=O)[C@]4(CC)C=CCN5CC[C@]31[C@@H]54)C2 [Vinorelbine] |  |  | effect on PDO (shape, number or size of cystic PDO structures) (CCA PDO): effective |
| COc1cccc2c1C(=O)c1c(O)c3c(c(O)c1C2=O)C[C@@](O)(C(C)=O)C[C@@H]3O[C@H]1C[C@H](N)[C@H](O)[C@H](C)O1 [daunorubicin] |  | pan-effective |  |
| CC[C@@]1(O)C(=O)OCc2c1cc1n(c2=O)Cc2cc3c(CN(C)C)c(O)ccc3nc2-1 [topotecan] |  | pan-effective |  |
| CC[C@]1(O)C[C@H]2CN(CCc3c([nH]c4ccccc34)[C@@](C(=O)OC)(c3cc4c(cc3OC)N(C=O)[C@H]3[C@@](O)(C(=O)OC)[C@H](OC(C)=O)[C@]5(CC)C=CCN6CC[C@]43[C@@H]65)C2)C1 [vincristine] |  |  | inter patient effect (mean cell viability per patient cancer specimen) [2]: work well in just 1 cancer |
| plicamycin | effective across the 6 PDO lines | pan-effective |  |
